The values below come from PMC4942689, “Deciphering the function of the CNGB1b subunit in olfactory CNG channels” (Scientific Reports, 2016).

Test [1] has as its target T1, homotetrameric CNGA2 channels (Rattus norvegicus, UniProt Q00195).
T1 construct: expressed in transfected cells; host or cells: Xenopus laevis oocytes (cRNA injection), excised inside-out patches
The test can be described thus: Concentration-activation relationship, inside-out patch-clamp, Xenopus oocytes. It is filed as biochemical. The protocol: Patch-clamp experiments were performed using an Axopatch 200B amplifier (Molecular Devices LLC, CA, U.S.A.) in the inside-out configuration. The patch pipettes for recording of macroscopic currents were pulled from borosilicate glass tubing (outer diameter 2.0 mm, inner diameter 1.0 mm; Hilgenberg GmbH, Germany). […] The patches were formed as pushed inside-out patches. […] Cyclic nucleotide concentration jumps were performed using a double-barreled glass pipette mounted on a piezo-driven device. Intracellular (bath) and extracellular (pipette) solutions contained (mM) 150 KCl, 1 EGTA, 5 Hepes, pH = 7.4 with KOH. […] Currents in the absence of the cyclic nucleotide were subtracted. All patches included in this study were first tested for channel expression in the presence of a saturating ligand concentration. Only patches with large current, i.e. a large number of channels, were included in our statistics. The currents were measured at +10 mV or, if mentioned, at +100 mV. Fits of equations to data points were performed with the 8.1G® software (OriginLab Corporation, Northampton, U.S.A.). Concentration-activation relationships were obtained by relating the actual current amplitude, I, to the maximum current amplitude elicited by a saturating concentration of ligand, Imax, and plotting this ratio as function of the ligand concentration, x. […]
(The patch-clamp technique gives a direct electrical read-out from membranes.)

A further test has as its target T2, CNGA2TM:A4RE:B1bRE (Rattus norvegicus, UniProt A0A8I5ZN27+Q00195+Q64359, R1106E/R430E/T539M).
T2 construct: expressed in transfected cells; host or cells: Xenopus laevis oocytes (cRNA injection), excised inside-out patches
Briefly: Ligand binding, confocal patch-clamp fluorometry. Also noted: key: +: ligand binding to the respective modulatory subunits was either observed or not; −: ligand binding to the respective modulatory subunits was either observed or not. The following applies: 10 μM; construct CNGA2TM:A4RE:B1bRE. An excerpt: (§1) The channels to be studied were expressed in Xenopus oocytes. We first tested the subunit composition in our channels when coexpressing different combinations of subunits by single-channel recordings. For CNGA2:A4, CNGA2:B1b and CNGA2:A4:B1b channels we exclusively obtained the specific and easily distinguishable single-channel activity reported earlier when injecting respective amounts of RNA[7][13]. We therefore assumed that the channels formed had always the expected subunit composition. The specific binding of cyclic nucleotides and the activation of the CNG channels were measured in parallel by means of confocal patch-clamp fluorometry in excised patches, using fluorescent cyclic nucleotide derivatives. The method has been described previously.
To verify the hypothesis that the CNGB1b subunit in CNGA2:A4:B1b channels binds cyclic nucleotides, we coexpressed CNGB1b with CNGA4RE and either CNGA2RE or CNGA2TM and measured ligand binding in the presence of 10 μM fcGMP. […]
The ligand binding was measured in macropatches by patch-clamp fluorometry[41][42] combined with confocal microscopy. […] To distinguish between the fluorescence of the unbound ligands from that of the bound ligands, a second dye, DY647 (Dyomics, Jena, Germany), was added to the bath solution. […]

The target in the next test is T3, CNGA2RE:B1b (Rattus norvegicus, UniProt A0A8I5ZN27+Q00195, R538E).
T3 construct: expressed in transfected cells; host or cells: Xenopus laevis oocytes (cRNA injection), excised patches
T3 sequence (Q00195 whole entry R538E): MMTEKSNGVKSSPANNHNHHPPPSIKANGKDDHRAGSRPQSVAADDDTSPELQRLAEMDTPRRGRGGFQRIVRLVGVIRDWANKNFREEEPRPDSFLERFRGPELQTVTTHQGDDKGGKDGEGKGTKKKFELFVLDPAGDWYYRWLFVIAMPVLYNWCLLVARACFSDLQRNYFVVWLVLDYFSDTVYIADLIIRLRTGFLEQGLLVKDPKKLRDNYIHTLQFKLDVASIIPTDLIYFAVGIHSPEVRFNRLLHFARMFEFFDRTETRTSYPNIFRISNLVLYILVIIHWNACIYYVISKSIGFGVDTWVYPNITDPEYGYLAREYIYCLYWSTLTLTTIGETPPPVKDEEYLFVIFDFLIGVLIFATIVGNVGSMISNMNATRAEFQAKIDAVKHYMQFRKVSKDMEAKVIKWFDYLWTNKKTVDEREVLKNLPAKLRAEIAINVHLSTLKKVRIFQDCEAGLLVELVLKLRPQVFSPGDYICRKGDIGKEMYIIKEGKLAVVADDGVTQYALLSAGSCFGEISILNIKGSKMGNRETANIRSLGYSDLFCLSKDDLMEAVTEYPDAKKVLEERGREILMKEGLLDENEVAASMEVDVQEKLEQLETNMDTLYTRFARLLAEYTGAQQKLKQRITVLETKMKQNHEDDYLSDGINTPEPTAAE
T3 sequence (A0A8I5ZN27 1-858 isoform A0A8I5ZN27-2, stated change not applied): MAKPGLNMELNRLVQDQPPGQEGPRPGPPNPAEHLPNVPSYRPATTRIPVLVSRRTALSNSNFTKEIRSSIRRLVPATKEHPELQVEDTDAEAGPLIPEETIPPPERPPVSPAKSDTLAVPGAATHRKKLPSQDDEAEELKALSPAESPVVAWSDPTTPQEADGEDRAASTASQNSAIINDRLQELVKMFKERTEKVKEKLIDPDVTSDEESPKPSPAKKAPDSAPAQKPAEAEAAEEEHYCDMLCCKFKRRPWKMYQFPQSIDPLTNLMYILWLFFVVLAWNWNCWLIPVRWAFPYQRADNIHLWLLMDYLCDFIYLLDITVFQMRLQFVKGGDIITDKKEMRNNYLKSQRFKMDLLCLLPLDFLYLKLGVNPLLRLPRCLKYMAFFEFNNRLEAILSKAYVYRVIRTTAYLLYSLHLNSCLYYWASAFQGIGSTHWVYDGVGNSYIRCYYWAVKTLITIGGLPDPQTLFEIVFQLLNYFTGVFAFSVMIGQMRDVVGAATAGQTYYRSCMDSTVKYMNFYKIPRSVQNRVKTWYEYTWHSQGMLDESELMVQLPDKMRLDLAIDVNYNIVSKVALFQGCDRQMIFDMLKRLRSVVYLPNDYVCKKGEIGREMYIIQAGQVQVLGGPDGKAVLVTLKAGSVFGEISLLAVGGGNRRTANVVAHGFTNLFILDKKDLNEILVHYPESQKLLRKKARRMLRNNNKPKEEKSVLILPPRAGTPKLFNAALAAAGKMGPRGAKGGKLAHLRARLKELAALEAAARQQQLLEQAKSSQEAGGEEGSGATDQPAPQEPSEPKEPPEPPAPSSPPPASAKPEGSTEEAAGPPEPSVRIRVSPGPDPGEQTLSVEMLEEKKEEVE
Briefly: Ligand binding, confocal patch-clamp fluorometry. Details: key to Ligand binding to CNGB1b: +: ligand binding to the respective modulatory subunits was either observed or not; −: ligand binding to the respective modulatory subunits was either observed or not. The following applies: 10 μM; construct CNGA2RE:B1b.
Excerpt: as §1
To study ligand binding to the CNGB1b subunit selectively, the binding domain of the CNGA2 subunits was disabled by either the point mutation R538E (red crosses in the cartoons) or T539M (blue crosses in the cartoons)[13][20]. […] To this end, CNGB1b was coexpressed with CNGA2RE.
The ligand binding was measured in macropatches by patch-clamp fluorometry[41][42] combined with confocal microscopy. […] Recordings were performed with an LSM 510 or 710 confocal microscope (Zeiss, Jena, Germany) and were triggered by the ISO3 software (MFK, Niedernhausen, Germany). To distinguish between the fluorescence of the unbound ligands from that of the bound ligands, a second dye, DY647 (Dyomics, Jena, Germany), was added to the bath solution. The 543-nm and 633-nm lines of a He-Ne laser were used to excite fcAMP/fcGMP and DY647, respectively. The method of confocal patch-clamp fluorometry has been described in detail previously.

T2 sequence (Q00195 whole entry T539M): as the sequence (Q00195 whole entry R538E) above, with E538R, T539M counted along it
T2 sequence (Q64359 whole entry R430E): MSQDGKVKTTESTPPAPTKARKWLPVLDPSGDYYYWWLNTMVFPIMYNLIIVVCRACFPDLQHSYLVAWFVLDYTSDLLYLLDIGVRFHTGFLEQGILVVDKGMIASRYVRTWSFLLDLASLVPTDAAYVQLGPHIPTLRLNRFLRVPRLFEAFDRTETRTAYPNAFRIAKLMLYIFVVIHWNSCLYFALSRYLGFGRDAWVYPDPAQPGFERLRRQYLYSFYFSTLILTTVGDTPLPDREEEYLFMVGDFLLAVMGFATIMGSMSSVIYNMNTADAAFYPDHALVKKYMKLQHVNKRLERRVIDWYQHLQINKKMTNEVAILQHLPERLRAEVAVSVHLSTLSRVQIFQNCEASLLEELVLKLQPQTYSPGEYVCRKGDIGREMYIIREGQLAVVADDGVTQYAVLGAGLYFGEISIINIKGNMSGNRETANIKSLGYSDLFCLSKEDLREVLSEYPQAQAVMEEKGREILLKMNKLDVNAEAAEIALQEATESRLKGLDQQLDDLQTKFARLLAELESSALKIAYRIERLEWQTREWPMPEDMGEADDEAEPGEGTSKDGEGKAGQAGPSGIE
T2 sequence (A0A8I5ZN27 1-858 isoform A0A8I5ZN27-2 R657E): as the sequence (A0A8I5ZN27 1-858 isoform A0A8I5ZN27-2, stated change not applied) above, with R657E counted along it
T1 sequence (Q00195 whole entry): as the sequence (Q00195 whole entry R538E) above, with E538R counted along it

`Nc1nc2c(ncn2[C@@H]2O[C@@H]3COP(=O)(O)O[C@H]3[C@H]2O)c(=O)[nH]1` [cGMP]: the H in test [1] (Hill coefficient, Equation 1) is given as 1.9. The same molecule came in with an EC50 in test [1] (fit with Equation 1) of 1740 nM.
As for 8-[DY-547]-AET-cGMP [fcGMP], at CNGA2TM:A4RE:B1bRE, the “Ligand binding to CNGA4” value is on record as “−” and the “Ligand binding to CNGB1b” value is “−”. Further, the “Ligand binding to CNGB1b” value at CNGA2RE:B1b is listed as “−”.

The term EC50 denotes the midpoint of the concentration-response curve.
